Measured values reported in ChEMBL document CHEMBL4130341 (Medchemcomm, 2016).
The source made the active and inactive calls. The calls are words filed in the database; no cut-off is given here.

Legend:
Rattus norvegicus [1] = experiment: In vivo induction of CYP450 activity in Wistar rat liver microsomal fraction at 15 mg/kg, po qd administered over 2 weeks by measuring EROD activity using 7-ethoxyresorufine as substrate measured for 5 mins; format: ADME, organism-based; conditions: microsomes
[2] = Cytotoxicity against wild type mouse Hepa1c1c7 cells after 48 hrs by SRB assay; format: functional, cell-based; conditions: Hepa-1c1c7, 48 h
TK-10 = experiment: Cytotoxicity against human TK10 cells assessed as cell survival after 24 hrs by SRB assay; format: functional, cell-based; conditions: TK-10, 24 h
[3] = molecular target: T1, Nuclear factor erythroid 2-related factor 2 (Mus musculus) (UniProt Q60795); experiment: Activation of Nrf2 in wild type mouse Hepa1c1c7 cells cytosolic fraction assessed as induction of quinone reductase activity using 2,6-DCIP as substrate in presence of NADH incubated for 48 hrs measured for 1 min
T1 sequence (whole entry): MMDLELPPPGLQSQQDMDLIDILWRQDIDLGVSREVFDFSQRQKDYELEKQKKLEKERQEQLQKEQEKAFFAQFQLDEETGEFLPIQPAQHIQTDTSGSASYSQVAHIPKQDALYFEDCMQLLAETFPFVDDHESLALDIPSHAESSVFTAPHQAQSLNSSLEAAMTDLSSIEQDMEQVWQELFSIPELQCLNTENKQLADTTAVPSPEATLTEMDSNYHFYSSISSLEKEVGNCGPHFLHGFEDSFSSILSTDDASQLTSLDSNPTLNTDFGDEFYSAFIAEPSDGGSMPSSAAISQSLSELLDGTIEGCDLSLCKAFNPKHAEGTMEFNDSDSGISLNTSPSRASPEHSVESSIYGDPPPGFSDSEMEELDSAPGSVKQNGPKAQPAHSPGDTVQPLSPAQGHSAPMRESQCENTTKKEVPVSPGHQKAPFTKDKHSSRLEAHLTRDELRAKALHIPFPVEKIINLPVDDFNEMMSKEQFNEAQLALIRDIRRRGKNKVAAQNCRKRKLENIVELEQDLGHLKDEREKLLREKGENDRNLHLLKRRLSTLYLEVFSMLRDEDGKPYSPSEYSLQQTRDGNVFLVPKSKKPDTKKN

[4] = molecular target: T1, Nuclear factor erythroid 2-related factor 2 (Mus musculus); experiment: Activation of Nrf2 in mutant mouse BpRc1 cells cytosolic fraction assessed as induction of quinone reductase activity using 2,6-DCIP as substrate in presence of NADH incubated for 48 hrs measured for 1 min; format: cell-based
[5] = molecular target: T1, Nuclear factor erythroid 2-related factor 2 (Mus musculus); experiment: Ratio of activation of wild type Nrf2 in mouse Hepa1c1c7 cells cytosolic fraction to activation of Nrf2 in mutant mouse BpRc1 cells cytosolic fraction; format: cell-based
Rattus norvegicus [6] = experiment: Toxicity in Wistar rat assessed as effect on behavior at 15 mg/kg, po qd administered over 2 weeks; format: organism-based; conditions: in vivo, 336 h
[7] = molecular target: T1, Nuclear factor erythroid 2-related factor 2 (Mus musculus); experiment: Activation of Nrf2 in mutant mouse BpRc1 cells cytosolic fraction assessed as induction of quinone reductase activity at 10 uM using 2,6-DCIP as substrate in presence of NADH incubated for 48 hrs measured for 1 min relative to control; format: cell-based
[8] = Ratio of IC50 for cytotoxicity against mutant mouse BpRc1 cells to CD for activation of Nrf2 in mutant mouse BpRc1 cells cytosolic fraction
Rattus norvegicus [9] = experiment: Toxicity in Wistar rat assessed as effect on body weight at 15 mg/kg, po qd administered over 2 weeks; format: organism-based; conditions: in vivo, 336 h
HK-2 = experiment: Genotoxicity in human HK2 cells assessed as induction of DNA strand breakage at 20 uM after 6 hrs by DAPI staining based alkaline comet assay; format: toxicity, cell-based; conditions: hk-2, 6 h
MCF7 [10] = experiment: Cytotoxicity against human MCF7 cells assessed as cell survival at 100 uM after 24 hrs by SRB assay relative to control; format: functional; conditions: for viability at 100 µM: MCF7, 24 h, read-out: Survival
[11] = Ratio of IC50 for cytotoxicity against wild type mouse Hepa1c1c7 cells to CD for activation of Nrf2 in wild type mouse Hepa1c1c7 cells cytosolic fraction
Rattus norvegicus [12] = experiment: In vivo induction of CYP450 activity in Wistar rat mammary gland microsomal fraction at 15 mg/kg, po qd administered over 2 weeks by measuring EROD activity using 7-ethoxyresorufine as substrate measured for 5 mins; format: ADME, organism-based; conditions: microsomes
HT-29 [13] = experiment: Cytotoxicity against human HT-29 cells assessed as cell survival at 100 uM after 24 hrs by SRB assay relative to control; format: functional; conditions: HT-29, 24 h, read-out: Survival
Salmonella typhimurium = experiment: Mutagenicity in Salmonella typhimurium TA98 in presence of mouse liver S9 fraction by Ames test; format: toxicity, organism-based; conditions: salmonella enterica subsp. enterica serovar typhimurium
[14] = molecular target: T1, Nuclear factor erythroid 2-related factor 2 (Mus musculus); experiment: Induction of Nrf2 nuclear translocation in mouse Hepa1c1c7 cells at 20 uM after 6 hrs by DAPI/Hoechst 33258 staining-based immunofluorescence method; format: cell-based
Rattus norvegicus [15] = experiment: In vivo induction of CYP450 activity in Wistar rat colon microsomal fraction at 15 mg/kg, po qd administered over 2 weeks by measuring EROD activity using 7-ethoxyresorufine as substrate measured for 5 mins; format: ADME, organism-based; conditions: microsomes
[16] = molecular target: T1, Nuclear factor erythroid 2-related factor 2 (Mus musculus); experiment: Activation of Nrf2 in wild type mouse Hepa1c1c7 cells cytosolic fraction assessed as induction of quinone reductase activity at 10 uM using 2,6-DCIP as substrate in presence of NADH incubated for 48 hrs measured for 1 min relative to control
[17] = molecular target: T1, Nuclear factor erythroid 2-related factor 2 (Mus musculus); experiment: Ratio of CD for activation of Nrf2 in mutant mouse BpRc1 cells cytosolic fraction to CD for activation of Nrf2 in wild type mouse Hepa1c1c7 cells cytosolic fraction; format: cell-based
[18] = Cytotoxicity against mutant mouse BpRc1 cells after 48 hrs by SRB assay; format: functional, cell-based; conditions: BPrc1, 48 h
Rattus norvegicus [19] = experiment: In vivo induction of GST activity in Wistar rat colon cytosolic fraction at 15 mg/kg, po qd administered over 2 weeks by measuring GS-CDNB adduct formation using CDNB/GSH as substrate measured for 1 min relative to control; format: functional
Rattus norvegicus [20] = experiment: In vivo induction of quinone reductase activity in Wistar rat liver cytosolic fraction at 15 mg/kg, po qd administered over 2 weeks using 2,6-DCIP as substrate relative to control; format: functional
Rattus norvegicus [21] = experiment: In vivo induction of GST activity in Wistar rat liver cytosolic fraction at 15 mg/kg, po qd administered over 2 weeks by measuring GS-CDNB adduct formation using CDNB/GSH as substrate measured for 1 min relative to control; format: functional
Rattus norvegicus [22] = experiment: In vivo induction of quinone reductase activity in Wistar rat colon cytosolic fraction at 15 mg/kg, po qd administered over 2 weeks using 2,6-DCIP as substrate relative to control; format: functional
Rattus norvegicus [23] = experiment: In vivo induction of GST activity in Wistar rat mammary gland cytosolic fraction at 15 mg/kg, po qd administered over 2 weeks by measuring GS-CDNB adduct formation using CDNB/GSH as substrate measured for 1 min relative to control; format: functional
Rattus norvegicus [24] = experiment: In vivo induction of quinone reductase activity in Wistar rat mammary gland cytosolic fraction at 15 mg/kg, po qd administered over 2 weeks using 2,6-DCIP as substrate relative to control; format: functional
HT-29 [25] = experiment: Cytotoxicity against human HT-29 cells assessed as cell survival after 24 hrs by SRB assay; format: functional, cell-based; conditions: HT-29, 24 h
MCF7 [26] = experiment: Cytotoxicity against human MCF7 cells assessed as cell survival after 24 hrs by SRB assay; format: functional, cell-based; conditions: MCF7, 24 h

## O=C(/C=C/c1cccc2ccccc12)c1ccccc1O
Rattus norvegicus [1]
  Activity: Toxic
[2]
  IC50: 33 µM
TK-10
  IC50: 14 µM
[3]
  CD: 11 µM
[4]
  CD: 10 µM
[5]
  Ratio: 1.5
Rattus norvegicus [6]
  Activity: Non-Toxic
[7]
  fold change (FC): 2.21
[8]
  Ratio: 4.5
Rattus norvegicus [9]
  Activity: Non-Toxic
HK-2
  Activity: Non-Toxic
MCF7 [10]
  viability at 100 µM: < 50%
[11]
  Ratio: 3
Rattus norvegicus [12]
  Activity: Non-Toxic
HT-29 [13]
  viability at 100 µM: < 50%
Salmonella typhimurium
  Activity: Non-Toxic
[14]
  Activity: Active
Rattus norvegicus [15]
  Activity: Non-Toxic
[16]
  fold change (FC): 3.21
[17]
  Ratio: 0.91
[18]
  IC50: 45 µM

## O=C(/C=C/c1cccnc1Br)c1ccccc1O
Rattus norvegicus [1]
  Activity: Non-Toxic
Rattus norvegicus [19]
  Activity: 16%
[2]
  IC50: 39 µM
Rattus norvegicus [20]
  Activity: 25%
Rattus norvegicus [21]
  Activity: 29%
TK-10
  IC50: 26 µM
[3]
  CD: 14 µM
Rattus norvegicus [22]
  Activity: 11%
[4]
  CD: 10 µM
[5]
  Ratio: 0.8
Rattus norvegicus [6]
  Activity: Non-Toxic
[7]
  fold change (FC): 1.98
[8]
  Ratio: >20
Rattus norvegicus [23]
  Activity: 10%
Rattus norvegicus [24]
  Activity: 13%
Rattus norvegicus [9]
  Activity: Non-Toxic
HK-2
  Activity: Non-Toxic
MCF7 [10]
  Activity: Active
[11]
  Ratio: 2.8
Rattus norvegicus [12]
  Activity: Non-Toxic
Salmonella typhimurium
  Activity: Non-Toxic
[14]
  Activity: Active
Rattus norvegicus [15]
  Activity: Non-Toxic
[16]
  fold change (FC): 1.57
[17]
  Ratio: 0.71
[18]
  IC50: > 200 µM

## O=C(/C=C/c1ccc2ccccc2c1)c1ccccc1O
[2]
  IC50: 85 µM
[3]
  CD: 0.5 µM
[4]
  CD: 20 µM
[5]
  Ratio: 2.1
[7]
  fold change (FC): 1.39
[8]
  Ratio: 4.2
HK-2
  Activity: Non-Toxic
MCF7 [10]
  viability at 100 µM: < 50%
[11]
  Ratio: 170
HT-29 [13]
  viability at 100 µM: < 50%
Salmonella typhimurium
  Activity: Non-Toxic
[16]
  fold change (FC): 2.96
[17]
  Ratio: 40
[18]
  IC50: 85 µM

## O=C(/C=C/c1ccccc1)c1cccc2ccccc12
TK-10
  IC50: 20 µM
[5]
  Ratio: 0.9
[7]
  fold change (FC): 1.13
HK-2
  Activity: Non-Toxic
MCF7 [10]
  viability at 100 µM: < 50%
HT-29 [13]
  viability at 100 µM: < 50%
Salmonella typhimurium
  Activity: Non-Toxic
[16]
  fold change (FC): 0.98

## O=c1cc(-c2ccc(Br)cc2)oc2ccccc12
[2]
  IC50: 85 µM
[3]
  CD: 0.79 µM
[4]
  CD: 80 µM
[5]
  Ratio: 2.99
[7]
  fold change (FC): 1.49
[8]
  Ratio: 1.9
[11]
  Ratio: 107
[16]
  fold change (FC): 4.45
[17]
  Ratio: 101
[18]
  IC50: 150 µM

## O=C(/C=C/c1cccc2ccccc12)c1c(O)ccc2ccccc12
[5]
  Ratio: 1.6
[7]
  fold change (FC): 0.82
HK-2
  Activity: Non-Toxic
MCF7 [10]
  viability at 100 µM: < 50%
HT-29 [13]
  viability at 100 µM: < 50%
Salmonella typhimurium
  Activity: Non-Toxic
[16]
  fold change (FC): 1.29

## O=C(/C=C/c1cccc(Br)n1)c1ccccc1O
TK-10
  IC50: 18 µM
[5]
  Ratio: 1
[7]
  fold change (FC): 1.18
HK-2
  Activity: Non-Toxic
MCF7 [10]
  viability at 100 µM: < 50%
HT-29 [13]
  viability at 100 µM: < 50%
Salmonella typhimurium
  Activity: Non-Toxic
[16]
  fold change (FC): 1.23

## CC(C)(C)c1cc(O)ccc1O [E319]
[2]
  IC50: 147 µM
[3]
  CD: 1 µM
[4]
  CD: 6 µM
[8]
  Ratio: 10
[11]
  Ratio: 147
[14]
  Activity: Active
[17]
  Ratio: 6
[18]
  IC50: 60 µM

## O=C(/C=C/c1ccccc1)c1ccc2ccccc2c1
HT-29 [25]
  IC50: 32 µM
[5]
  Ratio: 0.8
[7]
  fold change (FC): 1.21
MCF7 [26]
  IC50: 28 µM
HK-2
  Activity: Non-Toxic
MCF7 [10]
  viability at 100 µM: < 50%
HT-29 [13]
  viability at 100 µM: < 50%
Salmonella typhimurium
  Activity: Non-Toxic
[16]
  fold change (FC): 0.96

## O=C(/C=C/c1cncc(Br)c1)c1ccccc1O
TK-10
  IC50: 20 µM
[5]
  Ratio: 1.5
[7]
  fold change (FC): 1.03
MCF7 [10]
  Activity: Active
Salmonella typhimurium
  Activity: Non-Toxic
[16]
  fold change (FC): 1.51
